Experimental data: patent US9458414B2, “Cleaning, surfactant, and personal care compositions” (SEGETIS, INC., priority 2012, dated 2016)

What was measured:
[1] = Hair dye active solubility testing
Method: Two component mixtures using ketal alcohol (1a) and the actives shown in Table 13 were prepared by mixing the components at various proportions in a vial at room temperature and then heating in a lab oven at 80° C. for 10 minutes and then shaking.
Comparative formulations using EtLGK and ketal alcohol (1a) are shown below in Tables 14 and 15.

[2] = Hard surface cleaning formulation pH testing over 7 days; format: physicochemical; conditions: 5 g solvent per 100 g
Method: Formulations were prepared by combining ingredients and mixing until homogeneous. Next, pH measurements were taken over 7 days.

[3] = Coupling of water and soy methyl ester by hydrotropes; format: physicochemical
Method: Hydrotropes were added to a two-component mixture of soy methyl ester and DI water to find the amount that produced a single phase from the two separate phases of water and soy methyl ester. The percent hydrotrope required to compatibilize the phases was calculated.

[4] = Hard surface cleaning formulation freeze-thaw testing; format: physicochemical; conditions: for Freeze-thaw visual observation: Example 5 formulation containing the solvent, 0° C. freezer >12 hours, thaw to room temperature
Method: Formulations as in Example 5 were prepared by combining ingredients and mixing until homogeneous. Freeze-thaw testing was performed over 3 cycles. Each cycle was putting the formulations into a 0° C. freezer for greater than 12 hours, then taking them out and allowing the samples to thaw to room temperature and then making the visual observation.

[5] = Coupling of water and castor oil by hydrotropes; format: physicochemical
[6] = Hard surface cleaning formulation heat cloud point testing; format: physicochemical; conditions: Example 5 formulation containing the solvent; for Cloud point: heated while mixing
Method: Formulations as in Example 5 were prepared by combining ingredients and mixing until homogeneous.

[7] = Coupling of water and octanoic acid by hydrotropes (amount producing a single phase); format: physicochemical
Method: Hydrotropes were added to a two-component mixture of octanoic acid and deionized (DI) water to find the amount that produced a single phase from the two separate phases of water and octanoic acid.
The percent hydrotrope required to compatibilize phases (and the resulting percent octanoic acid) were calculated and the results are shown in Table 4 as well as FIG. 1.

[8] = Vanillin composition in ketal alcohol (1a); format: physicochemical; conditions: 75% ketal alcohol (1a) to 25% vanillin by weight, room temperature
Method: Vanillin was dissolved into the ketal alcohol (1a) at room temperature using 75% ketal alcohol (1a) to 25% vanillin by weight.

[9] = ratio of water:soy methyl esters 10:90
[10] = ratio of water:soy methyl esters 30:70
[11] = ratio of water:soy methyl esters 50:50
[12] = ratio of water:soy methyl esters 70:30
[13] = ratio of water:soy methyl esters 90:10
[14] = ratio of water to castor oil 10:90
[15] = ratio of water to castor oil 30:70
[16] = ratio of water to castor oil 50:50
[17] = ratio of water to castor oil 70:30
[18] = ratio of water to castor oil 90:10
[19] = ratio of water:octanoic acid 10:90
[20] = ratio of water:octanoic acid 30:70
[21] = ratio of water:octanoic acid 50:50
[22] = ratio of water:octanoic acid 70:30
[23] = ratio of water:octanoic acid 90:10
[24] = water:octanoic acid 10:90 (DI water 0.5 g, octanoic acid 4.5 g)
[25] = water:octanoic acid 30:70 (DI water 1.5 g, octanoic acid 3.5 g)
[26] = water:octanoic acid 50:50 (DI water 5.0 g, octanoic acid 5.0 g)
[27] = water:octanoic acid 70:30 (DI water 3.5 g, octanoic acid 1.5 g)
[28] = water:octanoic acid 90:10 (DI water 4.5 g, octanoic acid 0.5 g)

## Nc1ccc(N)cc1 [p-phenylene diamine]
[1]; Table 15, weight percentage active 1%
  Ketal Alcohol (1a) Solubility: insoluble
[1]; weight percentage active 1%, 80° C. 10 minutes, shaking, room temperature 24 hours
  Ketal Alcohol (1a) Solubility: soluble
[1]; weight percentage active 5% in EtLGK
  EtLGK Solubility: soluble
[1]; weight percentage active 5%, 80° C. 10 minutes, shaking, room temperature 24 hours
  Ketal Alcohol (1a) Solubility: soluble
[1]; weight percentage active 10%, 80° C. 10 minutes, shaking, room temperature 24 hours
  Ketal Alcohol (1a) Solubility: insoluble

## CCOC(=O)CCC1(C)OCC(CO)O1 (stereo not shown) [Ketal alcohol (1a)]
[2]
  pH stability of the formulation containing the solvent: maintained the same pH as the formulation containing 2-butoxyethanol and the control formulation

## CC1COC(C)(CCCO)O1 (stereo not shown) [Ketal alcohol (1a)]
[3]; [9]
  Wt % Hydrotrope required to compatibilize the phases: 58%
  Wt % Soy Methyl Esters (at compatibilization): 38%
[3]; [10]
  Wt % Hydrotrope required to compatibilize the phases: 73%
  Wt % Soy Methyl Esters (at compatibilization): 19%
[3]; [11]
  Wt % Hydrotrope required to compatibilize the phases: 81%
  Wt % Soy Methyl Esters (at compatibilization): 10%
[3]; [12]
  Wt % Hydrotrope required to compatibilize the phases: 83%
  Wt % Soy Methyl Esters (at compatibilization): 5%
[3]; [13]
  Wt % Hydrotrope required to compatibilize the phases: 81%
  Wt % Soy Methyl Esters (at compatibilization): 2%
[4]; Cycle 1
  Freeze-thaw visual observation: stable;
[4]; Cycle 2
  Freeze-thaw visual observation: gradient;
[4]; Cycle 3
  Freeze-thaw visual observation: gradient;
[4]; formulation containing the solvent, 3 cycles
  Freeze-thaw performance overall: performed similarly to or better than the 2-butoxyethanol
[5]; [14]
  Wt % Castor oil (at compatibilization): 32%
  Wt % Hydrotrope required to compatibilize phases: 64%
[5]; [15]
  Wt % Castor oil (at compatibilization): 21%
  Wt % Hydrotrope required to compatibilize phases: 71%
[5]; [16]
  Wt % Castor oil (at compatibilization): 11%
  Wt % Hydrotrope required to compatibilize phases: 79%
[5]; [17]
  Wt % Castor oil (at compatibilization): 5%
  Wt % Hydrotrope required to compatibilize phases: 82%
[5]; [18]
  Wt % Castor oil (at compatibilization): 2%
  Wt % Hydrotrope required to compatibilize phases: 84%
[6]
  Cloudiness on heating: showed no signs of cloudiness
  Cloud point: >100 °C
[7]; [19]
  Wt % Hydrotrope required to compatibilize phases: 31%
  Wt % Octanoic Acid (resulting, at compatibilization): 62%
[7]; [20]
  Wt % Hydrotrope required to compatibilize phases: 53%
  Wt % Octanoic Acid (resulting, at compatibilization): 33%
[7]; [21]
  Wt % Hydrotrope required to compatibilize phases: 54%
  Wt % Octanoic Acid (resulting, at compatibilization): 23%
[7]; [22]
  Wt % Hydrotrope required to compatibilize phases: 55%
  Wt % Octanoic Acid (resulting, at compatibilization): 14%
[7]; [23]
  Wt % Hydrotrope required to compatibilize phases: 46%
  Wt % Octanoic Acid (resulting, at compatibilization): 5%
[7]; [24]
  Amount of hydrotrope that produced a single phase: 2.27 grams
[7]; [25]
  Amount of hydrotrope that produced a single phase: 5.63 grams
[7]; [26]
  Amount of hydrotrope that produced a single phase: 11.81 grams
[7]; [27]
  Amount of hydrotrope that produced a single phase: 6.07 grams
[7]; [28]
  Amount of hydrotrope that produced a single phase: 4.33 grams

## COc1cc(C=O)ccc1O [Vanillin]
[8]
  Appearance of mixture in ketal alcohol (1a): homogeneous clear liquid with no signs of precipitate

## CCCCOCCO [2-butoxyethanol]
[4]; Cycle 1
  Freeze-thaw visual observation: separation;
[4]; Cycle 2
  Freeze-thaw visual observation: separation;
[4]; Cycle 3
  Freeze-thaw visual observation: two phases;
[6]
  Cloud point: 44 °C
[6]; listed as Butyl Cellosolve
  Cloud point: 44 °C
[7]; [19]
  Wt % Hydrotrope required to compatibilize phases: 33%
  Wt % Octanoic Acid (resulting, at compatibilization): 60%
[7]; [20]
  Wt % Hydrotrope required to compatibilize phases: 52%
  Wt % Octanoic Acid (resulting, at compatibilization): 34%
[7]; [21]
  Wt % Hydrotrope required to compatibilize phases: 57%
  Wt % Octanoic Acid (resulting, at compatibilization): 21%
[7]; [22]
  Wt % Hydrotrope required to compatibilize phases: 61%
  Wt % Octanoic Acid (resulting, at compatibilization): 12%
[7]; [23]
  Wt % Hydrotrope required to compatibilize phases: 52%
  Wt % Octanoic Acid (resulting, at compatibilization): 5%
[7]; [24]
  Amount of hydrotrope that produced a single phase: 2.47 grams
[7]; [25]
  Amount of hydrotrope that produced a single phase: 5.39 grams
[7]; [26]
  Amount of hydrotrope that produced a single phase: 6.74 grams
[7]; [27]
  Amount of hydrotrope that produced a single phase: 7.9 grams
[7]; [28]
  Amount of hydrotrope that produced a single phase: 5.43 grams

## CCOC(=O)CCC1(C)OCC(CO)O1 (stereo not shown) [EtLGK, glycerol ketal of ethyl levulinic acid]
[3]; [9]
  Wt % Hydrotrope required to compatibilize the phases: 78%
  Wt % Soy Methyl Esters (at compatibilization): 20%
[3]; [10]
  Wt % Hydrotrope required to compatibilize the phases: 83%
  Wt % Soy Methyl Esters (at compatibilization): 12%
[3]; [11]
  Wt % Hydrotrope required to compatibilize the phases: 86%
  Wt % Soy Methyl Esters (at compatibilization): 7%
[3]; [12]
  Wt % Hydrotrope required to compatibilize the phases: 86%
  Wt % Soy Methyl Esters (at compatibilization): 4%
[3]; [13]
  Wt % Hydrotrope required to compatibilize the phases: 84%
  Wt % Soy Methyl Esters (at compatibilization): 2%
[2]
  pH stability of the formulation containing the solvent: underwent significant pH drift downward
[4]; Cycle 1
  Freeze-thaw visual observation: stable;
[4]; Cycle 2
  Freeze-thaw visual observation: gradient;
[4]; Cycle 3
  Freeze-thaw visual observation: gradient;
[5]; [14]
  Wt % Castor oil (at compatibilization): 35%
  Wt % Hydrotrope required to compatibilize phases: 61%
[5]; [15]
  Wt % Castor oil (at compatibilization): 17%
  Wt % Hydrotrope required to compatibilize phases: 76%
[5]; [16]
  Wt % Castor oil (at compatibilization): 9%
  Wt % Hydrotrope required to compatibilize phases: 82%
[5]; [17]
  Wt % Castor oil (at compatibilization): 4%
  Wt % Hydrotrope required to compatibilize phases: 86%
[5]; [18]
  Wt % Castor oil (at compatibilization): 1%
  Wt % Hydrotrope required to compatibilize phases: 85%
[6]
  Cloudiness on heating: showed no signs of cloudiness
  Cloud point: >100 °C
[7]; [19]
  Wt % Hydrotrope required to compatibilize phases: 38%
  Wt % Octanoic Acid (resulting, at compatibilization): 55%
[7]; [20]
  Wt % Hydrotrope required to compatibilize phases: 59%
  Wt % Octanoic Acid (resulting, at compatibilization): 29%
[7]; [21]
  Wt % Hydrotrope required to compatibilize phases: 69%
  Wt % Octanoic Acid (resulting, at compatibilization): 15%
[7]; [22]
  Wt % Hydrotrope required to compatibilize phases: 66%
  Wt % Octanoic Acid (resulting, at compatibilization): 10%
[7]; [23]
  Wt % Hydrotrope required to compatibilize phases: 58%
  Wt % Octanoic Acid (resulting, at compatibilization): 4%
[7]; [24]
  Amount of hydrotrope that produced a single phase: 3.11 grams
[7]; [25]
  Amount of hydrotrope that produced a single phase: 7.2 grams
[7]; [26]
  Amount of hydrotrope that produced a single phase: 22.68 grams
[7]; [27]
  Amount of hydrotrope that produced a single phase: 9.79 grams
[7]; [28]
  Amount of hydrotrope that produced a single phase: 6.84 grams
